# Data as given in publication PMC10693084, “Novel 8-Methoxycoumarin-3-Carboxamides with potent anticancer activity against liver cancer via targeting caspase-3/7 and β-tubulin polymerization” (BMC Chemistry, 2023).
# How the values were obtained:
# [1] = system: human liver carcinoma HepG2 cells; assay: MTT cytotoxicity assay against HepG2 cells; assay type: cell-based; conditions: for Structure–activity summary of cytotoxic activity (Fig. 4B) / IC50: HepG2 cells; for IC50: MTT, 24 h treatment
# Procedure: To assess the antitumor properties of these compounds, we utilized the 3-(4,5-dimethylthiazol-2-yl)-2,5-diphenyl tetrazolium bromide (MTT) colorimetric assay, a widely used method to evaluate cell viability and cytotoxicity.
# Following the incubation period, the cells were subjected to various concentrations of the prepared molecules and subsequently incubated for a duration of 24 h. […] Subsequently, a volume of 100 μL of dimethyl sulfoxide (DMSO) was introduced into each well in order to facilitate the dissolution of the purple formazan that had been generated. The quantification of the color intensity of the formazan product, which serves as an indicator of the cellular growth condition, is performed by employing an ELISA plate reader set at a wavelength of 570 nm. The experimental conditions were implemented with a minimum of three replicates, and the experiments were conducted on at least three separate occasions.
melting point [°C],Compound,Structure–activity summary of cytotoxic activity (Fig. 4B) [1],IC50 [1] [µM],"IC50 ([1]; Homo sapiens, HepG2, 24 h) [µM]",HepG2-Cell Viability (%) ([1]; concentration LogC 0.19 (µM)),HepG2-Cell Viability (%) ([1]; concentration LogC 0.8 (µM)),HepG2-Cell Viability (%) ([1]; concentration LogC 1.4 (µM)),HepG2-Cell Viability (%) ([1]; concentration LogC 2 (µM)),HepG2-Cell Viability (%) ([1]; concentration LogC -0.41 (µM))
220,"COc1ccc(Br)c2cc(C(=O)NC(C)=O)c(=O)oc12 [Compound 7, N-acetyl 5-bromo-8-methoxycoumarin-3-carboxamide]",improved activity,2.57 ± 0.16,2.3,68.52±2.36,60.52±2.64,53.19±2.87,45.03±3.1,77.18±1.73
186,"COc1cccc2cc(C(=O)O)c(=O)oc12 [Compound 8, 8-methoxycoumarin-3-carboxylic acid]",moderate activity,5.18 ± 0.31,5,–,–,–,–,–
253,"COc1cccc2cc(C(N)=O)c(=O)oc12 [Compound 4, 8-Methoxycoumarin-3-carboxamide]",moderate activity,17.2 ± 1.05,17,65.8±1.73,57.78±2.46,47.29±3.09,37.94±2.75,75.81±1.48
210,"COc1ccc(Br)c2cc(C(=O)O)c(=O)oc12 [Compound 9, 5-Bromo-8-methoxycoumarin-3-carboxylic acid]",attenuated activity,41.6 ± 2.52,41,66.86±1.86,55.34±2.24,50.19±3.07,42.17±2.94,73.23±1.47
285,"COc1cccc2cc(C(=O)NC(C)=O)c(=O)oc12 [Compound 6, N-acetyl 8-methoxycoumarin-3-carboxamide]",moderate activity,–,–,54.47±1.72,44.64±1.98,37.53±2.14,27.04±2.87,59.86±1.33
